Assay results: patent US11261186B2, “Biaryl derivative as GPR120 agonist” (LG CHEM, LTD., priority 2014, dated 2022)

Each compound was assayed against T1, hGPR120 (Homo sapiens, UniProt Q5NUL3) (assay: Measurement of Activity of GPR120 Agonist (Cell-Based Assay), Calcium 5 dye fluorescence). Settings: CHO-K1 cells expressing Ga16 and hGPR120.
T1 construct: expressed in transfected cells; host or cells: CHO-K1
T1 sequence (Q5NUL3 1-361): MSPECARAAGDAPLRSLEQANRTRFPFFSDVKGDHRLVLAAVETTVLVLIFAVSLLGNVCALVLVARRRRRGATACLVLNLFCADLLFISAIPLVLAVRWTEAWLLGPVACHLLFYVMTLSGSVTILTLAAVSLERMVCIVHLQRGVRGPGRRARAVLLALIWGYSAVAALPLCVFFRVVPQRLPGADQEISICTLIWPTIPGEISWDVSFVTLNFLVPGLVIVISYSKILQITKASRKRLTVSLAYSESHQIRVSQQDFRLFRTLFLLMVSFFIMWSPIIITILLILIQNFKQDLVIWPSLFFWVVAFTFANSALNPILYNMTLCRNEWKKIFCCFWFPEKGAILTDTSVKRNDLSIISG
Procedure, shortened: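 After an 18 h incubation at 37 °C, the transfected CHO-K1 cells (Gα16, hGPR120) received Calcium 5 dye for 1 h; compound dilutions in 0.5% DMSO were then injected and emission at 525 nm recorded, with values given as % of the vehicle response.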

First: CN(CCCC(=O)O)c1c(F)cc(-c2cccnc2OCC2CCC2)cc1F [Example 218, 4-{[4-(2-cyclobutylmethoxy-pyridin-3-yl)-2,6-difluoro-phenyl]-methyl-amino}-butyric acid]
Second: CCN(CCCC(=O)O)c1c(F)cc(-c2cccnc2OCC2CCC2)cc1F [Example 225, 4-{[4-(2-cyclobutylmethoxy-pyridin-3-yl)-2,6-difluoro-phenyl]-ethyl-amino}-butyric acid]
The EC50 of the first is lower: less than 200 nM for the first, 200 to 2000 nM for the second. The first is the more potent here.

First: COc1ncccc1-c1cc(F)c(N(C)CCCC(=O)O)c(F)c1 [Example 219, 4-{[2,6-difluoro-4-(2-methoxy-pyridin-3-yl)-phenyl]-methyl-amino}-butyric acid]
Second: CCN(CCCC(=O)O)c1c(F)cc(-c2cccnc2OC(C)C)cc1F [Example 226, 4-{[2,6-difluoro-4-(2-isopropoxy-pyridin-3-yl)-phenyl]-ethyl-amino}-butyric acid]
The EC50 of the first is higher: 2000 to 20000 nM for the first, 200 to 2000 nM for the second. The second is the more potent here.

Compared with `CN(CCCC(=O)O)c1c(F)cc(-c2ccccc2N2CCCC2)cc1F` [Example 221, 4-[(3,5-difluoro-2′-pyrrolidin-1-yl-biphenyl-4-yl)-methyl-amino]-butyric acid], `CNc1ccccc1-c1cc(F)c(N(C)CCCC(=O)O)c(F)c1` [Example 222, 4-[(3,5-difluoro-2′-methylamino-biphenyl-4-yl)-methyl-amino]-butyric acid] is higher in EC50: less than 200 nM for the first, 200 to 2000 nM for the second. The first is the more potent here.

`CC(C)N(C)c1ccccc1-c1cc(F)c(N(C)CCCC(=O)O)c(F)c1` [Example 223, 4-{[3,5-difluoro-2′-(isopropyl-methyl-amino)-biphenyl-4-yl]-methyl-amino}-butyric acid] and `COc1ccc(-c2cc(F)c(N(C)CCCC(=O)O)c(F)c2)c2c1OC(C)(C)C2` [Example 259, 4-{[2,6-difluoro-4-(7-methoxy-2,2-dimethyl-2,3-dihydro-benzofuran-4-yl)-phenyl]-methyl-amino}-butyric acid] cannot be ordered by EC50: less than 200 nM for the first, less than 200 nM for the second.

First: CCN(CCCC(=O)O)c1c(F)cc(-c2cccnc2SC2CCC2)cc1F [Example 224, 4-{[4-(2-cyclobutylsulfanyl-pyridin-3-yl)-2,6-difluoro-phenyl]-ethyl-amino}-butyric acid]
Second: C[C@H](CCCC(=O)O)c1c(F)cc(-c2cccnc2SC2CCC2)cc1F [Example 227, (R)-5-[4-(2-cyclobutylsulfanyl-pyridin-3-yl)-2,6-difluoro-phenyl]-hexanoic acid]
The EC50 of the first is higher: 200 to 2000 nM for the first, less than 200 nM for the second.

`C[C@H](C/C=C/C(=O)O)c1c(F)cc(-c2cccnc2SC2CCC2)cc1F` [Example 228, (E)-(R)-5-[4-(2-cyclobutylsulfanyl-pyridin-3-yl)-2,6-difluoro-phenyl]-hex-2-enoic acid] and `C[C@@H](CCCC(=O)O)c1c(F)cc(-c2cccnc2SC2CCC2)cc1F` [Example 229, (S)-5-[4-(2-cyclobutylsulfanyl-pyridin-3-yl)-2,6-difluoro-phenyl]-hexanoic acid] cannot be ordered by EC50: less than 200 nM for the first, less than 200 nM for the second.

First: CC(CCCC(=O)O)c1c(F)cc(-c2cccnc2OC2CCOC2)cc1F (centres unmarked) [Example 230, 5-{2,6-difluoro-4-[2-(tetrahydro-furan-3-yloxy)-pyridin-3-yl]-phenyl}-hexanoic acid]
Second: CC(CCCC(=O)O)c1c(F)cc(-c2cccnc2OC2COC2)cc1F (centres unmarked) [Example 232, 5-{2,6-difluoro-4-[2-(oxetan-3-yloxy)-pyridin-3-yl]-phenyl}-hexanoic acid]
The EC50 of the first is lower: less than 200 nM for the first, 200 to 2000 nM for the second. The first is the more potent here.

`CC(CCCC(=O)O)c1c(F)cc(-c2cccnc2OC2CCOCC2)cc1F` (centres unmarked) [Example 231, 5-{2,6-difluoro-4-[2-(tetrahydro-pyran-4-yloxy)-pyridin-3-yl]-phenyl}-hexanoic acid] and `CC(CCCCC(=O)O)c1c(F)cc(-c2cccnc2OC2CCCC2)cc1F` (centres unmarked) [Example 237, 6-[4-(2-cyclopentyloxy-pyridin-3-yl)-2,6-difluoro-phenyl]-heptanoic acid] cannot be ordered by EC50: less than 200 nM for the first, less than 200 nM for the second.

First: O=C(O)CCCOc1ccc(-c2cccnc2OC2CCC2)cc1F [Example 233, 4-[4-(2-cyclobutoxy-pyridin-3-yl)-2-fluoro-phenoxy]-butyric acid]
Second: O=C(O)CCCOc1ccc(-c2cccnc2OC2CCCC2)cc1F [Example 234, 4-[4-(2-cyclopentyloxy-pyridin-3-yl)-2-fluoro-phenoxy]-butyric acid]
The EC50 of the first is higher: 200 to 2000 nM for the first, less than 200 nM for the second.

`O=C(O)CCCOc1ccc(-c2cccnc2SC2CCC2)cc1F` [Example 235, 4-[4-(2-cyclobutylsulfanyl-pyridin-3-yl)-2-fluoro-phenoxy]-butyric acid] and `O=C(O)CCCOc1ccc(-c2cccnc2SC2CCCC2)cc1F` [Example 236, 4-[4-(2-cyclopentylsulfanyl-pyridin-3-yl)-2-fluoro-phenoxy]-butyric acid] cannot be ordered by EC50: less than 200 nM for the first, less than 200 nM for the second.

`CC(CCCCC(=O)O)c1c(F)cc(-c2cccnc2SC2CCCC2)cc1F` (centres unmarked) [Example 238, 6-[4-(2-cyclopentylsulfanyl-pyridin-3-yl)-2,6-difluoro-phenyl]-heptanoic acid] and `O=C(O)CCCCc1ccc(-c2cccnc2SC2CCCC2)cc1F` [Example 248, 5-[4-(2-cyclopentylsulfanyl-pyridin-3-yl)-2-fluoro-phenyl]-pentanoic acid] cannot be ordered by EC50: less than 200 nM for the first, less than 200 nM for the second.

Compared with `O=C(O)CCCSc1ccc(-c2cccnc2OCC2CC2)cc1F` [Example 239, 4-[4-(2-cyclopropylmethoxy-pyridin-3-yl)-2-fluoro-phenylsulfanyl]-butyric acid], `O=C(O)CCCOc1ccc(-c2cccnc2OCC2CC2)cc1F` [Example 240, 4-[4-(2-cyclopropylmethoxy-pyridin-3-yl)-2-fluoro-phenoxy]-butyric acid] is higher in EC50: less than 200 nM for the first, 200 to 2000 nM for the second. The first is the more potent here.

`O=C(O)CCCOc1ccc(-c2cccnc2OCC2CCC2)cc1F` [Example 241, 4-[4-(2-cyclobutylmethoxy-pyridin-3-yl)-2-fluoro-phenoxy]-butyric acid] and `O=C(O)CCCCc1ccc(-c2cccnc2OCC2CCC2)cc1F` [Example 246, 5-[4-(2-cyclobutylmethoxy-pyridin-3-yl)-2-fluoro-phenyl]-pentanoic acid] cannot be ordered by EC50: less than 200 nM for the first, less than 200 nM for the second.

`O=C(O)CCCCc1ccc(-c2cccnc2OC2CCCC2)cc1F` [Example 244, 5-[4-(2-cyclopentyloxy-pyridin-3-yl)-2-fluoro-phenyl]-pentanoic acid] and `O=C(O)CCCCc1ccc(-c2cccnc2OC2CCC2)cc1F` [Example 245, 5-[4-(2-cyclobutoxy-pyridin-3-yl)-2-fluoro-phenyl]-pentanoic acid] cannot be ordered by EC50: less than 200 nM for the first, less than 200 nM for the second.

`O=C(O)CCCCc1ccc(-c2cccnc2OCC2CC2)cc1F` [Example 247, 5-[4-(2-cyclopropylmethoxy-pyridin-3-yl)-2-fluoro-phenyl]-pentanoic acid] and `O=C(O)CCCCc1c(F)cc(-c2cccnc2OCC2CC2)cc1F` [Example 252, 5-[4-(2-cyclopropylmethoxy-pyridin-3-yl)-2,6-difluoro-phenyl]-pentanoic acid] cannot be ordered by EC50: less than 200 nM for the first, less than 200 nM for the second.

`O=C(O)CCCCc1ccc(-c2cccnc2SC2CCC2)cc1F` [Example 249, 5-[4-(2-cyclobutylsulfanyl-pyridin-3-yl)-2-fluoro-phenyl]-pentanoic acid] and `O=C(O)CCCCc1c(F)cc(-c2cccnc2OC2CCC2)cc1F` [Example 251, 5-[4-(2-cyclobutoxy-pyridin-3-yl)-2,6-difluoro-phenyl]-pentanoic acid] cannot be ordered by EC50: less than 200 nM for the first, less than 200 nM for the second.

`O=C(O)CCCCc1c(F)cc(-c2cccnc2OCC2CCC2)cc1F` [Example 250, 5-[4-(2-cyclobutylmethoxy-pyridin-3-yl)-2,6-difluoro-phenyl]-pentanoic acid] and `O=C(O)CCCOc1c(F)cc(-c2cccc3c2OC2(CCCC2)C3)cc1F` [Example 261, 4-(2,6-difluoro-4-spiro[3H-benzofuran-2,1′-cyclopentan]-7-yl-phenoxy)-butyric acid] cannot be ordered by EC50: less than 200 nM for the first, less than 200 nM for the second.

Compared with `CC1(C)Cc2cc(Cl)cc(-c3cc(F)c(OCCCC(=O)O)c(F)c3)c2O1` [Example 253, 4-[4-(5-chloro-2,2-dimethyl-2,3-dihydro-benzofuran-7-yl)-2,6-difluoro-phenoxy]-butyric acid], `CN(CCCC(=O)O)c1c(F)cc(-c2cc(Cl)cc3c2OC(C)(C)C3)cc1F` [Example 255, 4-{[4-(5-chloro-2,2-dimethyl-2,3-dihydro-benzofuran-7-yl)-2,6-difluoro-phenyl]-methyl-amino}-butyric acid] is lower in EC50: 200 to 2000 nM for the first, less than 200 nM for the second.

`CC1(C)Cc2cc(Cl)cc(-c3cc(F)c(SCCCC(=O)O)c(F)c3)c2O1` [Example 254, 4-[4-(5-chloro-2,2-dimethyl-2,3-dihydro-benzofuran-7-yl)-2,6-difluoro-phenylsulfanyl]-butyric acid] and `CC(CCCC(=O)O)c1c(F)cc(-c2cc(Cl)cc3c2OC(C)(C)C3)cc1F` (centres unmarked) [Example 256, 5-[4-(5-chloro-2,2-dimethyl-2,3-dihydro-benzofuran-7-yl)-2,6-difluoro-phenyl]-hexanoic acid] fall in the same range of EC50: 200 to 2000 nM for the first, 200 to 2000 nM for the second.

`COc1ccc(-c2cc(F)c(OCCCC(=O)O)c(F)c2)c2c1OC(C)(C)C2` [Example 257, 4-[2,6-difluoro-4-(7-methoxy-2,2-dimethyl-2,3-dihydro-benzofuran-4-yl)-phenoxy]-butyric acid] and `COc1ccc(-c2cc(F)c(SCCCC(=O)O)c(F)c2)c2c1OC(C)(C)C2` [Example 258, 4-[2,6-difluoro-4-(7-methoxy-2,2-dimethyl-2,3-dihydro-benzofuran-4-yl)-phenylsulfanyl]-butyric acid] cannot be ordered by EC50: less than 200 nM for the first, less than 200 nM for the second.

`COc1ccc(-c2cc(F)c(C(C)CCCC(=O)O)c(F)c2)c2c1OC(C)(C)C2` (centres unmarked) [Example 260] showed an EC50 of less than 200 nM.
